Measurements from US20160193291A1, “METHOD OF REGULATING NEURONAL AXON ELONGATION” (RIKEN, priority 2012, published 2016).

Experiments:
Type in all cases: cell-based, chick (Gallus gallus)
[1] = test system: growth cones of DRG neurons; assay: Growth cone collapse assay (growth cone surface area)
Protocol: Dissociated DRG neurons from embryonic day 7-9 chicks were cultured for at least 12 h in an F-12 medium (Invitrogen) containing 50 ng/ml NGF. […] Subsequently, the culture medium was changed to BSS buffer. […] In experiments using epoxomicin, the cells were treated with […] epoxomicin for 15 min before the addition of […] Sema3A.
The growth cone area was defined as a hand-like region extending from a distal part of a neurite to a growth cone neck whose width is equal to the width of the neurite. The width of each neurite was calculated by measuring the width of the neurite region at a location that was 30 μm apart from the distal part of each neurite. This calculation was adopted because the mean length of the control growth cone was less than 30 μm.

[2] = test system: DRG neurons; assay: Neurite elongation (neurite length) of transfected DRG neurons; conditions: 15 min pretreatment with 10 μM EIPA
[3] = test system: growth cones of primary culture DRG neurons; assay: Endocytosis of Alexa Fluor dextran (macropinocytosis) in growth cones
[4] = test system: Syx1B protein in growth cones; assay: Immunocytochemistry of Syx1B protein in growth cones; conditions: for protein level of Syx1B normalized to that of SNAP25 in the growth cones: 10 min treatment
Protocol: After Sema3A or vehicle treatment, the cells were fixed with 4% PFA for 1 h at 37° C., followed by permeabilization with 0.3% Triton X-100 in PBS for 2 min at a room temperature.
The cells were then immediately washed three times with a blocking solution (1% BSA and 0.1% Triton X-100 PBS), followed by incubation with the blocking solution for 1 h at a room temperature, and were then incubated in the presence of anti-Syx1B (0.5 μg/ml) and anti-synaptosomal-associated protein 25 (SNAP25) antibody (1:500 dilution, clone SM-81; Sternberger Monpclonals) for 2 h at a room temperature. Immunofluorescence signals were visualized by incubation with Alexa Fluor 488-labeled donkey anti-rabbit antibody (Invitrogen) and Alexa Fluor 594-labeled donkey anti-mouse antibody (Invitrogen). The integrated fluorescence intensity of Syx1B in the growth cones was normalized to that of the SNAP 25 protein.

[5] = 15 min pretreatment with 10 μM EIPA
[6] = 15 min pretreatment with 100 μM EIPA

Structure (SMILES): CCN(c1nc(N)c(C(=O)N=C(N)N)nc1Cl)C(C)C [EIPA, 5-(N-ethyl-N-isopropyl)amiloride]
- effect on Sema3A-induced growth cone collapse [1, 5]: suppressed
- effect on Syx1B knockdown-mediated growth cone collapse [1, 5]: reversed
- effect on neurotoxin C1-induced reduction in growth cone surface area [1, 6]: blocked
- effect on Syx1B knockdown-mediated reduced neurite elongation [2]: reversed
- effect on Sema3A-induced uptake of Alexa Flour 594-dextran [3, 5]: suppressed
- effect on Syx1B knockdown-mediated accumulation of Alexa Fluor 594-dextran [3, 5]: reversed
- effect on neurotoxin C1-induced uptake of Alexa Fluor 594-dextran [3, 6]: blocked

Structure (SMILES): O=c1cc(N2CCOCC2)oc2c(-c3ccccc3)cccc12 [LY294002, 2-(4-morpholinyl)-8-phenyl-1 (4H)-benzopyran-4-one]
- protein level of Syx1B normalized to that of SNAP25 in the growth cones [4]: significantly reduced
- growth cone area ([1]; 10 min LY294002 treatment): induced reduction in growth cone area
- macropinocytosis in the growth cones ([3]; 10 min LY294002 treatment): induced macropinocytosis

Structure (SMILES): CC[C@H](C)[C@H](NC(=O)[C@H]([C@@H](C)CC)N(C)C(C)=O)C(=O)N[C@H](C(=O)N[C@@H](CC(C)C)C(=O)[C@@]1(C)CO1)[C@@H](C)O [epoxomicin]
- effect on Sema3A-induced suppression of Syx1B ([4]; 1 μM epoxomicin): suppressed

Structure (SMILES): C/C1=C\[C@H](C)C[C@H](C)OC(=O)C[C@H](c2ccc(O)cc2)NC(=O)[C@@H](Cc2c(Br)[nH]c3ccccc23)N(C)C(=O)[C@H](C)NC(=O)[C@@H](C)C1 [jasplakinolide]
- protein level of Syx1B normalized to that of SNAP25 in the growth cones [4]: not decreased
- growth cone morphology [1]: induces growth cone collapse-like morphological changes
